Results: patent US12331042B2, “Compounds suitable for the treatment and prophylaxis of muscle wasting and other conditions” (priority 2019, dated 2025)
Entries after “also recorded” stand apart in the source; their conditions may differ.

Columns and labels:
[1] = biological target: MuRF1 E3 ligase activity (Homo sapiens, UniProt Q969Q1); test: Inhibition of MuRF1 E3 ligase activity (ubiquitination, Western blot); type: biochemical; settings: 20-100 μmol/L compound, 1 h at 37° C., based on ubiquitination patterns
Procedure: Compounds were then assessed for effects on MuRF1 E3 ligase activity directed to titin or to MuRF1 itself (self-ubiquitination) by mixing 75 nmol/L UBE1 (Boston Biochem), 1 μmol/L UbcH5c (Boston Biochem), 100 μmol/L Ubiquitin, 4 mmol/L ATP, 100 nmol/L Titin A168-170 with 20-100 μmol/L of respective compounds. Reactions were started by addition of 220 nmol/L MuRF1, followed by 1 h at 37° C., SDS PAGE and Western blot analysis with MuRF1 and titin specific antibodies. All reactions also included 5% DMSO.

[2] = system: monocrotaline (MCT)-treated C57BL/6 mice; test: Pulmonary hypertension mouse model, test series 2; type: in vivo; settings: MCT+compound (0.1 weight-% in chow) vs MCT, 8 weeks
Procedure: The test series 2 were performed analogous to test series 1. Briefly, Three groups of mice were included in this study: 1) saline-treated mice (sham; n=10); 2) monocrotaline (MCT)-treated mice fed with normal chow (MCT; n=10); and 3) MCT-treated mice fed with MuRF1 inhibitor chow (MCT+compound; n=10 for each compound). 8 weeks old C57BL/6 mice were subcutaneously injected weekly with either MCT (600 mg/kg) or a matched volume of saline for 8 weeks. The MCT+compound group started receiving the inhibitor chow 1 week prior to the MCT injections, whereas the sham and MCT groups were fed an identical chow but without the addition of the selected compound. The compound concentration in the chow was 0.1 weight-%, resulting in a daily compound intake per mouse of about 3 mg. Body weight was recorded every week for each mouse. Mice were sacrificed after 8 weeks treatment. At sacrifice, examination and tissue analysis were performed as described in test series 1.

[3] = system: Mrps5 (mitochondrial ribosomal protein 5); test: Proteomic analysis of diaphragm tissue, CHF mice; type: in vivo, Mus musculus; settings: CHF mice with vs without compound feeding, P=0.02
Procedure: To analyze the molecular mechanisms underlying the observed physiological changes and benefits of MyoMed-946-treated mice suffering from CHF, comparative quantitative proteomic analysis as well as Western blot analysis of diaphragm tissue from sham, CHF, and CHF+MyoMed-946-treated mice were performed.
Mass spectrometry-based proteomic analysis was performed at the DZHK Core Facility, Bad Nauheim, Germany. Obtained MS raw data were processed by MaxQuant (1.6.0.1) using the Andromeda search engine and the Uniprot database for Mus musculus (as of 20 Apr. 2017). At a false discovery rate of 1% (both peptide and protein levels), >2600 protein groups were identified. The reductive dimethylation protocol employed (see Boersema et al., Nat Protoc, 2009, 4, 484-494) yielded pairwise relative comparative quantitation (ratios) between proteins from CHF+MyoMed-946, CHF, and sham conditions, which were statistically queried for significant differences using standard statistical tests. Several proteins were identified to be statistically different (e.g. TNNT3, Timm9, Ccdc5, Adi1, Ptges3, and Ndufa3).

[4] = system: MuRF1 mRNA in C2C12 myotubes; test: MuRF1 mRNA in C2C12 myotubes treated with dexamethasone (RT-PCR); type: cell-based, Murine; settings: pre-treatment at 0.1 μmol/L and 10 μmol/L, then 24 h dexamethasone 10 μmol/L
Procedure: Murine C2C12 myoblasts (CRL-1772, ATCC) were cultured in DMEM (Lonza; Basel, Switzerland) supplemented with 10% fetal calf serum (FCS; Gibco®Invitrogen, Carlsbad, CA). For induction of differentiation into myotubes, subconfluent cultures were switched to DMEM containing 2% horse serum (Sigma-Aldrich; Seelze, Germany). Myotubes were subsequently pre-treated for 2 h with increasing compound concentrations (0.1 to 10 μmol/L, dissolved in DMSO) or with an equal volume of DMSO before treatment for 24 h with 10 μmol/L dexamethasone (DEX; Sigma-Aldrich; Seelze, Germany). Myotube diameter was then evaluated by image analysis software (Analysis 3.0, Olympus Soft Imaging Solutions GmbH, Munster, Germany). To determine cytotoxicity of selected compounds, myoblasts or myotubes were incubated with increasing concentrations for 24 h. Subsequently, the concentration of lactate dehydrogenase (LDH) activity was quantified in the cell culture supernatant as a measure for cell destruction as described in Bellocci et al., Anal Biochem, 2008, 374, 48-55.
After the incubation period, Total RNA was isolated from C2C12 cells and reverse transcribed into cDNA using random hexamers and Sensiscript reverse transcriptase (Qiagen, Hilden, Germany). An aliquot of the cDNA was used for quantitative RT-PCR, applying the Light Cycler system (Roche Diagnostics, Mannheim, Germany). […]

Sequence of MuRF1 E3 ligase activity (Q969Q1 whole entry): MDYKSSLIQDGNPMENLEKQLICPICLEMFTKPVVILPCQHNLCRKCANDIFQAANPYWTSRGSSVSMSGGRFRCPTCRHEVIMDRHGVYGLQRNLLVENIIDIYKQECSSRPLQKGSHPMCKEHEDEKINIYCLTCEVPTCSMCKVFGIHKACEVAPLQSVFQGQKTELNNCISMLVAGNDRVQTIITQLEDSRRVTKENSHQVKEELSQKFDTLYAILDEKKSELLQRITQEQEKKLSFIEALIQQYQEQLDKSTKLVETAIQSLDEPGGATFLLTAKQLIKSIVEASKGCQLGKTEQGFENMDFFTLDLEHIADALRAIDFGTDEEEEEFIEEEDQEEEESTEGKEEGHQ

For `Cc1cc(=O)oc2cc(OCc3ccc(C(=O)OCC(=O)NC(=O)NCc4ccco4)cc3)ccc12` [MyoMed-946, [2-(2-furylmethylcarbamoylamino)-2-oxo-ethyl] 4-[(4-methyl-2-oxo-chromen-7-yl)oxymethyl]benzoate], the “inhibition of MuRF1 E3 ligase activity” value [1] was “significantly inhibit MuRF1 E3 ligase activity”, the right ventricle hypertrophy [2] was “attenuated; also recorded: attenuate the development of right ventricle hypertrophy” and the “Mrps5 protein level (proteomics)” value [3] was “significantly up-regulated”. For the same compound, the “expression of MuRF1 at the mRNA level” value [4] was “reduced MuRF1 mRNA levels; also recorded: prevented”.
